ChEMBL document CHEMBL4507309 (2021)

Key:
Histamine H1 receptor [1] = biological target: T1, Histamine H1 receptor (Homo sapiens, UniProt P35367); conditions: Compound concentration 10.0 uM
[2] = biological target: 5-hydroxytryptamine receptor 3A (Homo sapiens, UniProt P46098); test: GPCRScan assay: inhibition of 5-HT3; parameters: radioligand conc. used [nm] 1.0 – 2.0, parental cells HEKT
[3] = biological target: Glutamate [NMDA] receptor; test: (§1) GPCRScan assay: inhibition of NMDA; assay type: protein-complex assay, Homo sapiens; parameters: radioligand conc. used [nm] 1.4 – 13.0
[4] = biological target: Glutamate [NMDA] receptor (Homo sapiens) (UniProt Q05586+Q12879+Q13224+O15399+O60391+Q14957+Q8TCU5); test: as §1; assay type: protein-complex assay; parameters: radioligand conc. used [nm] 1.4 – 13.0; conditions: Compound concentration 10.0 uM
[5] = biological target: T2, GABA-A receptor; anion channel (Rattus norvegicus) (UniProt O09028+P15431+P18506+P18508+P19969+P20236+P23574+P23576+P28471+P28473+P30191+P62813+P63079+P63138+Q91ZM7+Q9ES14); conditions: Compound concentration 10.0 uM
[6] = biological target: 5-hydroxytryptamine receptor 4 (Homo sapiens, UniProt Q13639); test: GPCRScan assay: inhibition of 5-HT4; parameters: radioligand conc. used [nm] 0.5 – 2.0, parental cells HEK T
Rattus norvegicus = species: Rattus norvegicus; conditions: Compound concentration 10.0 uM
[7] = biological target: T3, 5-hydroxytryptamine receptor 5A (Homo sapiens, UniProt P47898); conditions: Compound concentration 10.0 uM
[8] = biological target: T2, GABA-A receptor; anion channel (Rattus norvegicus); conditions: Compound concentration 10.0 uM; remark: listed apart in the source
Histamine H2 receptor [9] = biological target: T4, Histamine H2 receptor (Homo sapiens, UniProt P25021); conditions: Compound concentration 10.0 uM
[10] = biological target: D(2) dopamine receptor (Homo sapiens) (UniProt P14416); conditions: Compound concentration 10.0 uM
[11] = biological target: T5, 5-hydroxytryptamine receptor 2A (Homo sapiens, UniProt P28223); test: GPCRScan assay: inhibition of 5-HT2A; parameters: radioligand conc. used [nm] 1.2 – 2.4, parental cells HEKT
[12] = biological target: T6, 5-hydroxytryptamine receptor 1B (Homo sapiens, UniProt P28222); test: GPCRScan assay: inhibition of 5-HT1B; parameters: radioligand conc. used [nm] 0.6 – 1.5, parental cells stable HEK
[13] = biological target: Sigma non-opioid intracellular receptor 1 (Homo sapiens) (UniProt Q99720); conditions: Compound concentration 10.0 uM
[14] = biological target: T7, Sigma intracellular receptor 2 (Homo sapiens, UniProt Q5BJF2); conditions: Compound concentration 10.0 uM
[15] = biological target: D(1B) dopamine receptor (Homo sapiens) (UniProt P21918); conditions: Compound concentration 10.0 uM
[16] = biological target: Beta-1 adrenergic receptor (Homo sapiens) (UniProt P08588); conditions: Compound concentration 10.0 uM
[17] = biological target: Delta-type opioid receptor (Homo sapiens) (UniProt P41143); conditions: Compound concentration 10.0 uM
[18] = biological target: T5, 5-hydroxytryptamine receptor 2A; conditions: Compound concentration 10.0 uM
[19] = biological target: Muscarinic acetylcholine receptor M5 (Homo sapiens) (UniProt P08912); conditions: Compound concentration 10.0 uM
[20] = biological target: Sodium-dependent noradrenaline transporter (Homo sapiens) (UniProt P23975); conditions: Compound concentration 10.0 uM
[21] = biological target: Alpha-1B adrenergic receptor (Homo sapiens) (UniProt P35368); conditions: Compound concentration 10.0 uM
[22] = biological target: 5-hydroxytryptamine receptor 3A (Homo sapiens) (UniProt P46098); conditions: Compound concentration 10.0 uM
[23] = biological target: 5-hydroxytryptamine receptor 1A (Homo sapiens, UniProt P08908); test: GPCRScan assay: inhibition of 5-HT1A; parameters: radioligand conc. used [nm] 0.5 – 1.0, parental cells stable CHO
[24] = biological target: T8, Kappa-type opioid receptor (Homo sapiens, UniProt P41145); test: GPCRScan assay: inhibition of KOR; parameters: radioligand conc. used [nm] 0.6 – 1.2, parental cells stable HEK
D(1A) dopamine receptor [25] = biological target: T9, D(1A) dopamine receptor (Homo sapiens, UniProt P21728); conditions: Compound concentration 10.0 uM
[26] = biological target: T8, Kappa-type opioid receptor; conditions: Compound concentration 10.0 uM
[27] = biological target: T10, 5-hydroxytryptamine receptor 2B (Homo sapiens, UniProt P41595); conditions: Compound concentration 10.0 uM
[28] = biological target: Muscarinic acetylcholine receptor M1 (Homo sapiens) (UniProt P11229); conditions: Compound concentration 10.0 uM
[29] = biological target: T11, Sodium-dependent dopamine transporter (Homo sapiens, UniProt Q01959); test: GPCRScan assay: inhibition of DAT; parameters: radioligand conc. used [nm] 3.6 – 16.0, parental cells stable HEK
[30] = biological target: T12, 5-hydroxytryptamine receptor 1D (Homo sapiens, UniProt P28221); conditions: Compound concentration 10.0 uM
Histamine H1 receptor [31] = biological target: T1, Histamine H1 receptor; test: GPCRScan assay: inhibition of H1; parameters: radioligand conc. used [nm] 0.6 – 2.0, parental cells stable HEK
[32] = biological target: Alpha-1D adrenergic receptor (Homo sapiens) (UniProt P25100); conditions: Compound concentration 10.0 uM
[33] = biological target: T13, 5-hydroxytryptamine receptor 6 (Homo sapiens, UniProt P50406); conditions: Compound concentration 10.0 uM
[34] = biological target: T14, 5-hydroxytryptamine receptor 7 (Homo sapiens, UniProt P34969); conditions: Compound concentration 10.0 uM
Histamine H2 receptor [35] = biological target: T4, Histamine H2 receptor; test: GPCRScan assay: inhibition of H2; parameters: radioligand conc. used [nm] 0.02 – 0.05, parental cells Stable HEK
[36] = biological target: Beta-3 adrenergic receptor (Homo sapiens) (UniProt P13945); conditions: Compound concentration 10.0 uM
[37] = biological target: Beta-2 adrenergic receptor (Homo sapiens) (UniProt P07550); conditions: Compound concentration 10.0 uM
[38] = biological target: Muscarinic acetylcholine receptor M3 (Homo sapiens) (UniProt P20309); conditions: Compound concentration 10.0 uM
[39] = biological target: Alpha-2B adrenergic receptor (Homo sapiens, UniProt P18089); test: GPCRScan assay: inhibition of Alpha2B; parameters: radioligand conc. used [nm] 1.5 – 2.0, parental cells HEKT
[40] = biological target: Sodium-dependent serotonin transporter (Homo sapiens) (UniProt P31645); conditions: Compound concentration 10.0 uM
[41] = biological target: Alpha-2A adrenergic receptor (Homo sapiens) (UniProt P08913); conditions: Compound concentration 10.0 uM
[42] = biological target: T13, 5-hydroxytryptamine receptor 6; test: GPCRScan assay: inhibition of 5-HT6; parameters: radioligand conc. used [nm] 2.0 – 4.0, parental cells stable HEK
[43] = biological target: 5-hydroxytryptamine receptor 1A (Homo sapiens) (UniProt P08908); conditions: Compound concentration 10.0 uM
[44] = biological target: 5-hydroxytryptamine receptor 2C (Homo sapiens) (UniProt P28335); conditions: Compound concentration 10.0 uM
[45] = biological target: T12, 5-hydroxytryptamine receptor 1D; test: GPCRScan assay: inhibition of 5-HT1D; parameters: radioligand conc. used [nm] 1.0 – 2.0, parental cells HEKT
[46] = biological target: T14, 5-hydroxytryptamine receptor 7; test: GPCRScan assay: inhibition of 5-HT7A; parameters: radioligand conc. used [nm] 5.0 – 6.0, parental cells Stable HEK
[47] = biological target: T10, 5-hydroxytryptamine receptor 2B; test: GPCRScan assay: inhibition of 5-HT2B; parameters: radioligand conc. used [nm] 1.0 – 2.0, parental cells stable HEK
[48] = biological target: T6, 5-hydroxytryptamine receptor 1B; conditions: Compound concentration 10.0 uM
[49] = biological target: Alpha-2C adrenergic receptor (Homo sapiens) (UniProt P18825); conditions: Compound concentration 10.0 uM
[50] = biological target: Alpha-1A adrenergic receptor (Homo sapiens) (UniProt P35348); conditions: Compound concentration 10.0 uM
D(1A) dopamine receptor [51] = biological target: T9, D(1A) dopamine receptor; test: GPCRScan assay: inhibition of D1; parameters: radioligand conc. used [nm] 0.6 – 1.3, parental cells HEKT
[52] = biological target: Muscarinic acetylcholine receptor M2 (Homo sapiens) (UniProt P08172); conditions: Compound concentration 10.0 uM
[53] = biological target: 5-hydroxytryptamine receptor 2C (Homo sapiens, UniProt P28335); test: GPCRScan assay: inhibition of 5-HT2C; parameters: radioligand conc. used [nm] 1.0 – 2.5, parental cells HEK T
[54] = biological target: D(3) dopamine receptor (Homo sapiens) (UniProt P35462); conditions: Compound concentration 10.0 uM
[55] = biological target: Histamine H4 receptor (Homo sapiens) (UniProt Q9H3N8); conditions: Compound concentration 10.0 uM
[56] = biological target: Mu-type opioid receptor (Homo sapiens) (UniProt P35372); conditions: Compound concentration 10.0 uM
[57] = biological target: T11, Sodium-dependent dopamine transporter; conditions: Compound concentration 10.0 uM
[58] = biological target: Alpha-2B adrenergic receptor (Homo sapiens) (UniProt P18089); conditions: Compound concentration 10.0 uM
[59] = biological target: T7, Sigma intracellular receptor 2; test: GPCRScan assay: inhibition of Sigma 2; parameters: radioligand conc. used [nm] 5.0, parental cells HEKT
[60] = biological target: T3, 5-hydroxytryptamine receptor 5A; test: GPCRScan assay: inhibition of 5-HT5A; parameters: radioligand conc. used [nm] 2.0 - 3.3, parental cells Flp-In CHO
[61] = biological target: Muscarinic acetylcholine receptor M1 (Homo sapiens, UniProt P11229); test: GPCRScan assay: inhibition of M1; parameters: radioligand conc. used [nm] 0.3 – 1.2, parental cells stable CHO
[62] = biological target: Muscarinic acetylcholine receptor M2 (Homo sapiens, UniProt P08172); test: GPCRScan assay: inhibition of M2; parameters: radioligand conc. used [nm] 0.2 – 1.0, parental cells stable CHO

T11 sequence (Q01959 whole entry): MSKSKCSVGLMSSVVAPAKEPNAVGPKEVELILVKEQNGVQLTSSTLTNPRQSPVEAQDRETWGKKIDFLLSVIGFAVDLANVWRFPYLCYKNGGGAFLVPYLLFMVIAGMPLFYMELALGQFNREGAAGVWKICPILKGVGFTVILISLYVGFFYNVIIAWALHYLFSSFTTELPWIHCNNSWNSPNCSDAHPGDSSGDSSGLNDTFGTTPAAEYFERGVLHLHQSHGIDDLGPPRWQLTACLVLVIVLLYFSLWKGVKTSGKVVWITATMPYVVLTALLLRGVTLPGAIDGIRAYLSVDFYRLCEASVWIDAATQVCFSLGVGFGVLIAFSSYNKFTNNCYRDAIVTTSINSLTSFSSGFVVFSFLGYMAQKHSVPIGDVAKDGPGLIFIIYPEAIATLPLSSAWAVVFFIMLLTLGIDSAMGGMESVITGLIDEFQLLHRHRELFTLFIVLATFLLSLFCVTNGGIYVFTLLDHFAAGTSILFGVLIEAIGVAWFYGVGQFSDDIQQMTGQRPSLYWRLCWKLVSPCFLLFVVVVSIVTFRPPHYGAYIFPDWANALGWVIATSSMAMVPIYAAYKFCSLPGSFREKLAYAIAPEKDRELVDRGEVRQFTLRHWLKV
T8 sequence (P41145 whole entry): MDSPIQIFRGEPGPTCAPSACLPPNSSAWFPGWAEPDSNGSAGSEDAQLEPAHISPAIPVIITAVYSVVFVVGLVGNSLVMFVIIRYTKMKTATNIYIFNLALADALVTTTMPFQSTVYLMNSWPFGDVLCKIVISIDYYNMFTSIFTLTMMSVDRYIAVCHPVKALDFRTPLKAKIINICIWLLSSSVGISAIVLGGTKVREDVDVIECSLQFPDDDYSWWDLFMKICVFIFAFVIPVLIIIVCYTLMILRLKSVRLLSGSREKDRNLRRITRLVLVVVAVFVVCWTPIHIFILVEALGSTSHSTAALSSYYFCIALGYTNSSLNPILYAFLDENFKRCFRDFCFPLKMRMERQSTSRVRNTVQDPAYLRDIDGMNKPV
T10 sequence (P41595 whole entry): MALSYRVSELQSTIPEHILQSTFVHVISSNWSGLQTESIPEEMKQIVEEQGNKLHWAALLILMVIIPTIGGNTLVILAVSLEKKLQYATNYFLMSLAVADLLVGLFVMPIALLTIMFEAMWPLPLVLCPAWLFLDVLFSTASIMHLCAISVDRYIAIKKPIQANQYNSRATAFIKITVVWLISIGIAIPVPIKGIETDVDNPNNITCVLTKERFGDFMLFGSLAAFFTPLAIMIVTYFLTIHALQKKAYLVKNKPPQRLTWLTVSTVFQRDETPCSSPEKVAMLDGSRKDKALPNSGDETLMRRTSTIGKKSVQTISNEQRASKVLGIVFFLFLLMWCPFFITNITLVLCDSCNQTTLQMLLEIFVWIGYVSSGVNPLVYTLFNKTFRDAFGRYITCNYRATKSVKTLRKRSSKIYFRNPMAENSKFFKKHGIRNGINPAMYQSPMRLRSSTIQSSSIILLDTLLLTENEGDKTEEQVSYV
T1 sequence (P35367 whole entry): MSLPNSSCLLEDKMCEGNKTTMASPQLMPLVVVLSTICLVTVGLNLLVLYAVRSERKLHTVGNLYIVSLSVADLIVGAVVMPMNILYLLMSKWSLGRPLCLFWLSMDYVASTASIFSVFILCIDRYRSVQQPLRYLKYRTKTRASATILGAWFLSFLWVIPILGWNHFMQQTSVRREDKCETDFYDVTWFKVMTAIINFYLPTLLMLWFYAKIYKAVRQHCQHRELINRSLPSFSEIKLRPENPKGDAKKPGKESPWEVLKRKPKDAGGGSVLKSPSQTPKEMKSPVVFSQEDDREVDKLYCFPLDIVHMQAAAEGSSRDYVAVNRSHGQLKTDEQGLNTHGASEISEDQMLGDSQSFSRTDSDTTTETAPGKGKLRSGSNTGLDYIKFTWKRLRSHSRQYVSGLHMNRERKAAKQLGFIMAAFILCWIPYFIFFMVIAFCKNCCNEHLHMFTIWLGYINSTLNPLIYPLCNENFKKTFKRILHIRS
T12 sequence (P28221 whole entry): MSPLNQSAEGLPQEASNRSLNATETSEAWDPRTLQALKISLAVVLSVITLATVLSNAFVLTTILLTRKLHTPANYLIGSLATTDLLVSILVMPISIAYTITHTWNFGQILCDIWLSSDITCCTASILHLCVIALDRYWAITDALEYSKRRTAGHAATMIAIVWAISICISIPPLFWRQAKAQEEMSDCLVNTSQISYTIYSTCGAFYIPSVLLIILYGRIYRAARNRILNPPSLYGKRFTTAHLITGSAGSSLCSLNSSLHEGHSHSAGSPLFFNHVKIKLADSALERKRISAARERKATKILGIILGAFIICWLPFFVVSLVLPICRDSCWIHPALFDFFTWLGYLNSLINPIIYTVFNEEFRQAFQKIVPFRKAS
T4 sequence (P25021 whole entry): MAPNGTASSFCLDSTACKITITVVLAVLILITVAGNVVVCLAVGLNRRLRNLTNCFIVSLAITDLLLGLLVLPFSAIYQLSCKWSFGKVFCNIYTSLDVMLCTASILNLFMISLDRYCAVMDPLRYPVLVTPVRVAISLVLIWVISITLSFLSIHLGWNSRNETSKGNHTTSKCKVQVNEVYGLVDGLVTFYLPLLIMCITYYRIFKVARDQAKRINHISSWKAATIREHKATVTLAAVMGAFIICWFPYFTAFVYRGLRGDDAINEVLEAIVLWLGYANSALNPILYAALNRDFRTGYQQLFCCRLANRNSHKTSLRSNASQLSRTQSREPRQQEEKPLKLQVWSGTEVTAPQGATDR
T3 sequence (P47898 whole entry): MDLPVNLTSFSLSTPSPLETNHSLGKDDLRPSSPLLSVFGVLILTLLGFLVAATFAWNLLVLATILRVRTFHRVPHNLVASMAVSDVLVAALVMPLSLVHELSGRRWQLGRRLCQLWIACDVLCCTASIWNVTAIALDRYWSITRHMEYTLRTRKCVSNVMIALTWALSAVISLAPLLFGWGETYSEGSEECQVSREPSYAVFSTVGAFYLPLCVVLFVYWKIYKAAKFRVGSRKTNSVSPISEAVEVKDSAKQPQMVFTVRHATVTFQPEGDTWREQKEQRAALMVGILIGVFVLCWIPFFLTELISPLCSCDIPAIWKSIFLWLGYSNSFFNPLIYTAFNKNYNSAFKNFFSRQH
T6 sequence (P28222 whole entry): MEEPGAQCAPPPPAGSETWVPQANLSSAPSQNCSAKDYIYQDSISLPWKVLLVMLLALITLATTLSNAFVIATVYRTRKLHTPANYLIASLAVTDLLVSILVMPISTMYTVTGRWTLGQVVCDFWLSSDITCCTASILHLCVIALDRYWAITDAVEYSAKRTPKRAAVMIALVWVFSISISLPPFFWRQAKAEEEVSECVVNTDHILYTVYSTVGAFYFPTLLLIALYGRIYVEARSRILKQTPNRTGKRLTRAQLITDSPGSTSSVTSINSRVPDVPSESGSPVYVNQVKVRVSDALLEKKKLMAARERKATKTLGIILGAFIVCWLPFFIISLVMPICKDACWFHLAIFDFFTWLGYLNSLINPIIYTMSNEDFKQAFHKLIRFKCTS
Chain of Alpha-2B adrenergic receptor (P18089 whole entry): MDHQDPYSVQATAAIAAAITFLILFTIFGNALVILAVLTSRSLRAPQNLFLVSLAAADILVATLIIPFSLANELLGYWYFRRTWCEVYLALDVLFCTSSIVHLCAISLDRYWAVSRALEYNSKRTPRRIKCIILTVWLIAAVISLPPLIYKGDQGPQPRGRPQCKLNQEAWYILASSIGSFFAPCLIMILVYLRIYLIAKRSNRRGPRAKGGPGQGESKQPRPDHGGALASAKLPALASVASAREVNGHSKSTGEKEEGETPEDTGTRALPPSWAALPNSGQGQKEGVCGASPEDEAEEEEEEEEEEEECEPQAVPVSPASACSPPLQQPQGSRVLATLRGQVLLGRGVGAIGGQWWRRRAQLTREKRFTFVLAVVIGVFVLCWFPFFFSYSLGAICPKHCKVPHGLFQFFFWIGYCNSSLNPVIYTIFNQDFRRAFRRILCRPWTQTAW
T14 sequence (P34969 whole entry): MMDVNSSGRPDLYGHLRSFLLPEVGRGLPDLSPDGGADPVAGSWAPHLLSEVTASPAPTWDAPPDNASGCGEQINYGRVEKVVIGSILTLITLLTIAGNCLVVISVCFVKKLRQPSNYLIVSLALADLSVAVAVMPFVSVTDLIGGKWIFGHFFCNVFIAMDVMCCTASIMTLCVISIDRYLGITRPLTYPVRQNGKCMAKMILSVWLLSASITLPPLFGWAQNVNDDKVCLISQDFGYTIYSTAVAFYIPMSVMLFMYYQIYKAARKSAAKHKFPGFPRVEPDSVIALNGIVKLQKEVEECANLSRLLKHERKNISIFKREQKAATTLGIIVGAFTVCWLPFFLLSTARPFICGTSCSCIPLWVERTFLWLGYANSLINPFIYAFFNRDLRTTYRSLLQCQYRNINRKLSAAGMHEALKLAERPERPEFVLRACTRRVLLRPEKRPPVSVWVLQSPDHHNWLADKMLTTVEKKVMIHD
T9 sequence (P21728 whole entry): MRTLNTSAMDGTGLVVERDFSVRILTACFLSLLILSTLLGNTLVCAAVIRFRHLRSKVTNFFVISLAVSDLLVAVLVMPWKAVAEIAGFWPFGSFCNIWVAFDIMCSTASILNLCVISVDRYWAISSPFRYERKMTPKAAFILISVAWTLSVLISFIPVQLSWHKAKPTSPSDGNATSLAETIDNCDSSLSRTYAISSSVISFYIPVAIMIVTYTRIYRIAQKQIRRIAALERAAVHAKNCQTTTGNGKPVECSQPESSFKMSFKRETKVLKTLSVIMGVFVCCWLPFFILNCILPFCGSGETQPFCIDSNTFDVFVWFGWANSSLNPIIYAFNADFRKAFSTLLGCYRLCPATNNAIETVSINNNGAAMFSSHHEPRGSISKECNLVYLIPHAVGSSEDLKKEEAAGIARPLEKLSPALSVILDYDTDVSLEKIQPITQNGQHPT
Chain of Alpha-2B adrenergic receptor (Homo sapiens) (P18089 whole entry): as the sequence (P18089 whole entry) above

## Cc1ccc2nc(CNCCCOc3ccccc3)cc(O)c2c1 [UCSF924]
Histamine H1 receptor [1]
  inhibition: 25.5%
[2]; read-out: Ki
  Ki: 3.99 µM
[2]; read-out: pKi (converted)
  Ki: 3.72 µM
[3]
  Ki: 1 µM
[4]
  inhibition: 0%
[5]
  inhibition: 1.68%
[6]
  Ki: 6.69 µM
[6]; Compound concentration 10.0 uM
  inhibition: 0%
Rattus norvegicus
  inhibition: 8.58%
[7]
  inhibition: 28.8%
[8]
  inhibition: 4.11%
Histamine H2 receptor [9]
  inhibition: 24.8%
[10]
  inhibition: 8.56%
[11]
  Ki: 3.28 µM
[12]; read-out: Ki
  Ki: 3.41 µM
[12]; read-out: pKi (converted)
  Ki: 3.31 µM
[13]
  inhibition: 3.82%
[14]
  inhibition: 50.3%
[15]
  inhibition: 16.7%
[16]
  inhibition: 18.8%
[17]
  inhibition: 22.5%
[18]
  inhibition: 19.9%
[19]
  inhibition: 15.5%
[20]
  inhibition: 26.2%
[21]
  inhibition: 16.5%
[22]
  inhibition: 55%
[23]; read-out: Ki
  Ki: 0.223 µM
[23]; read-out: pKi (converted)
  Ki: 0.214 µM
[24]; read-out: Ki
  Ki: 2.31 µM
[24]; read-out: pKi (converted)
  Ki: 2.19 µM
D(1A) dopamine receptor [25]
  inhibition: 3.15%
[26]
  inhibition: 48.4%
[27]
  inhibition: 80%
[28]
  inhibition: 12.4%
[29]; read-out: Ki
  Ki: 2.12 µM
[29]; read-out: pKi (converted)
  Ki: 1.62 µM
[30]
  inhibition: 58.6%
Histamine H1 receptor [31]; read-out: Ki
  Ki: 4.55 µM
Histamine H1 receptor [31]; read-out: pKi (converted)
  Ki: 4.68 µM
[32]
  inhibition: 25.4%
[33]
  inhibition: 23%
[34]
  inhibition: 60%
Histamine H2 receptor [35]; read-out: Ki
  Ki: 1.91 µM
Histamine H2 receptor [35]; read-out: pKi (converted)
  Ki: 1.78 µM
[36]
  inhibition: 11.6%
[37]
  inhibition: 33.3%
[38]
  inhibition: -3.52%
[39]; read-out: Ki
  Ki: 3.04 µM
[39]; read-out: pKi (converted)
  Ki: 2.57 µM
[40]
  inhibition: 35.4%
[41]
  inhibition: 17.6%
[42]
  Ki: 6.68 µM
[43]
  inhibition: 72.1%
[44]
  inhibition: 31.7%
[45]; read-out: Ki
  Ki: 3.25 µM
[45]; read-out: pKi (converted)
  Ki: 3.14 µM
[46]
  Ki: 2.08 µM
[47]; read-out: Ki
  Ki: 0.237 µM
[47]; read-out: pKi (converted)
  Ki: 0.224 µM
[48]
  inhibition: 17.7%
[49]
  inhibition: 44.7%
[50]
  inhibition: 23%
D(1A) dopamine receptor [51]
  Ki: 3.42 µM
[52]
  inhibition: 22%
[53]
  Ki: 5.55 µM
[54]
  inhibition: 5.75%
[55]
  inhibition: 0.51%
[56]
  inhibition: 39.7%
[57]
  inhibition: 52.1%
[58]
  inhibition: 21.8%
[59]
  Ki: 1.89 µM
[60]; read-out: Ki
  Ki: 5.82 µM
[60]; read-out: pKi (converted)
  Ki: 5.62 µM
[61]
  Ki: 4.05 µM
[62]
  Ki: 4.43 µM
